Test system: CD30 antigen positive Karpas 299 cells
Experiment: In vitro cell proliferation assay, Karpas 299 cells (Example 18)
Format: cell-based

B-MCvcPABC-MMAE: Brentuximab (B) without light chain extension conjugated to MCvcPABC-MMAE, DAR 3.5 [reference compound]
EC50: 8 pM
